{"source": "patent US10408783B2", "about": "“Electrochemical methods and compounds for the detection of enzymes” (GEORGIA STATE UNIVERSITY RESEARCH FOUNDATION, INC., priority 2014, dated 2019)", "key": {"[1]": {"test_system": "A/Beijing/262/1995 (H1N1)", "assay": "Electrochemical assay using the printed electrodes", "type": "biochemical, Influenza A virus", "settings": "100 μL virus + 100 μL PBS buffer with SG1, 1 hour, 37° C.; 20 μL tested"}, "[2]": {"test_system": "A/Wisconsin/629-D02452/2009 (H1N1)", "assay": "Electrochemical assay using the printed electrodes", "type": "biochemical, Influenza A virus", "settings": "100 μL virus + 100 μL PBS buffer with SG1, 1 hour, 37° C.; 20 μL tested"}, "[3]": {"assay": "Electrochemical assay using the printed electrodes, SG1 without virus", "settings": "No virus + SG1 (negative control)"}, "[4]": {"test_system": "A/California/07/2009 (H1N1)", "assay": "Electrochemical assay using the printed electrodes", "type": "biochemical, Influenza A virus", "settings": "100 μL virus + 100 μL PBS buffer with SG1, 1 hour, 37° C.; 20 μL tested"}, "[5]": {"assay": "Electrochemical assay, 3 electrode system: SG1 in PBS buffer without enzyme", "settings": "SG1 0.5 mM in PBS buffer, no NA or virus"}, "[6]": {"test_system": "A/New York/18/2009 (H1N1)", "assay": "Electrochemical assay using the printed electrodes", "type": "biochemical, Influenza A virus", "settings": "100 μL virus + 100 μL PBS buffer with SG1, 1 hour, 37° C.; 20 μL tested"}, "[7]": {"test_system": "A/Brownsville/31H/2009 (H1N1)", "assay": "Electrochemical assay using the printed electrodes", "type": "biochemical, Influenza A virus", "settings": "100 μL virus + 100 μL PBS buffer with SG1, 1 hour, 37° C.; 20 μL tested"}, "[8]": {"test_system": "A/Wilson-Smith/1933 (H1N1)", "assay": "Electrochemical assay using the printed electrodes", "type": "biochemical, Influenza A virus", "settings": "100 μL virus + 100 μL PBS buffer with SG1, 1 hour, 37° C.; 20 μL tested"}, "[9]": {"test_system": "A/New Caledonia/20/1999 (H1N1)", "assay": "Electrochemical assay using the printed electrodes", "type": "biochemical, Influenza A virus"}, "[10]": {"test_system": "membrane free soluble N1 NA (strain H5N1 A/Anhui/1/2005)", "type": "biochemical, influenza virus", "settings": "SG1 0.5 mM, 2 hours, 23° C., PBS buffer"}, "H3N2 A/HongKong/8/68": {"test_system": "H3N2 A/HongKong/8/68", "assay": "Electrochemical assay, 3 electrode system: SG1 cleavage and drug susceptibility", "type": "biochemical, Influenza A virus", "settings": "100 μL UV inactivated virus, 1 hour"}, "[11]": {"test_system": "A/San Diego/1/2009 (H1N1)", "assay": "Electrochemical assay using the printed electrodes", "type": "biochemical, Influenza A virus", "settings": "100 μL virus + 100 μL PBS buffer with SG1, 1 hour, 37° C.; 20 μL tested"}, "[12]": {"test_system": "A/PuertoRico/8/1934 (H1N1)", "assay": "Electrochemical assay using the printed electrodes", "type": "biochemical, Influenza A virus", "settings": "100 μL virus + 100 μL PBS buffer with SG1, 1 hour, 37° C.; 20 μL tested"}, "[13]": {"test_system": "A/Uruguay/716/2007 (H3N2)", "assay": "Electrochemical assay using the printed electrodes", "type": "biochemical, Influenza A virus", "settings": "100 μL virus + 100 μL PBS buffer with SG1, 1 hour, 37° C.; 20 μL tested"}, "[14]": {"test_system": "A/Solomon Islands/3/2006 (H1N1)", "assay": "Electrochemical assay using the printed electrodes", "type": "biochemical, Influenza A virus", "settings": "100 μL virus + 100 μL PBS buffer with SG1, 1 hour, 37° C.; 20 μL tested"}, "A/Sydney/5/1997 (H3N2)": {"test_system": "A/Sydney/5/1997 (H3N2)", "assay": "Electrochemical assay using the printed electrodes", "type": "biochemical, Influenza A virus", "settings": "100 μL virus + 100 μL PBS buffer with SG1, 1 hour, 37° C.; 20 μL tested"}, "[15]": {"test_system": "A/Brisbane/59/2007 (H1N1)", "assay": "Electrochemical assay using the printed electrodes", "type": "biochemical, Influenza A virus", "settings": "100 μL virus + 100 μL PBS buffer with SG1, 1 hour, 37° C.; 20 μL tested"}, "A/Aichi/2/1968 (H1N1)": {"test_system": "A/Aichi/2/1968 (H1N1)", "assay": "Electrochemical assay using the printed electrodes", "type": "biochemical, Influenza A virus"}, "[16]": {"test_system": "N2 NA (strain A/Babol/36/2005)", "assay": "Electrochemical assay, 3 electrode system: SG1 cleavage and drug susceptibility", "type": "biochemical, influenza virus", "settings": "SG1 0.5 mM, 2 hours, 23° C., PBS buffer"}, "H3N2 A/Aichi/2/1968": {"test_system": "H3N2 A/Aichi/2/1968", "assay": "Electrochemical assay, 3 electrode system: SG1 cleavage and drug susceptibility", "type": "biochemical, Influenza A virus", "settings": "100 μL UV inactivated virus, 1 hour"}, "H1N1 A/Brisbane/59/2007": {"test_system": "H1N1 A/Brisbane/59/2007", "assay": "Electrochemical assay, 3 electrode system: SG1 cleavage and drug susceptibility", "type": "biochemical, Influenza A virus"}, "[17]": {"test_system": "A/Nanching/933/1995 (H3N2)", "assay": "Electrochemical assay using the printed electrodes", "type": "biochemical, Influenza A virus", "settings": "100 μL virus + 100 μL PBS buffer with SG1, 1 hour, 37° C.; 20 μL tested"}, "A/HongKong/8/1968 (H3N2)": {"test_system": "A/HongKong/8/1968 (H3N2)", "assay": "Electrochemical assay using the printed electrodes", "type": "biochemical, Influenza A virus", "settings": "100 μL virus + 100 μL PBS buffer with SG1, 1 hour, 37° C.; 20 μL tested"}, "[18]": {"test_system": "A/Victoria/361/2011 (H3N2)", "assay": "Electrochemical assay using the printed electrodes", "type": "biochemical, Influenza A virus", "settings": "100 μL virus + 100 μL PBS buffer with SG1, 1 hour, 37° C.; 20 μL tested"}, "[19]": {"test_system": "A/Wisconsin/15/2009 (H3N2)", "assay": "Electrochemical assay using the printed electrodes", "type": "biochemical, Influenza A virus", "settings": "100 μL virus + 100 μL PBS buffer with SG1, 1 hour, 37° C.; 20 μL tested"}, "[20]": {"test_system": "bacterial NA (BNA) from Clostridium perfringens", "type": "biochemical", "settings": "bacterial NA, no antiviral"}, "[21]": {"settings": "0.5 mM SG1, compared with one hour for most strains"}, "[22]": {"settings": "100 μL virus + 100 μL PBS buffer with SG1, 1 hour, 37° C., 20 μL tested"}}, "note": "“Also recorded” adds a separate entry of the source.", "data": [{"smiles": "CC(=O)N[C@H]1[C@H]([C@H](O)[C@H](O)CO)O[C@@](OC[C@H]2OC(O)[C@H](O)[C@@H](O)[C@@H]2O)(C(=O)O)C[C@@H]1O", "note": "(stereo partly drawn) [SG1, 5-acetamido-3,5-dideoxy-D-glycero-α-D-galacto-non-2-ulopyranosylonate-(2→6)-α,β-D-gluco pyranoside]", "values": [{"measurement": "Electrochemical assay (current)", "setting": "[1]", "result": "118.1 ± 11.6 ×10^−8 A"}, {"measurement": "Electrochemical assay (current)", "setting": "[2]", "result": "98.9 ± 5.7 ×10^−8 A"}, {"measurement": "Electrochemical assay (current)", "setting": "[3]", "result": "3.6 ± 2.2 ×10^−8 A"}, {"measurement": "Electrochemical assay (current)", "setting": "[4]", "result": "13.4 + 1.5 ×10^−8 A"}, {"measurement": "glucose release in the absence of enzymes", "setting": "[5]", "result": "no glucose released"}, {"measurement": "Electrochemical assay (current)", "setting": "[6]", "result": "74.4 ± 5.6 ×10^−8 A"}, {"measurement": "Electrochemical assay (current)", "setting": "[7]", "result": "91.7 ± 9.7 ×10^−8 A"}, {"measurement": "Electrochemical assay (current)", "setting": "[8]", "result": "99.5 ± 4.4 ×10^−8 A"}, {"measurement": "time to completely cleave SG1", "setting": "[9]; [21]", "result": "require longer time to completely cleave SG1"}, {"measurement": "Electrochemical assay (current)", "setting": "[9]; [22]", "result": "17.7 ± 2.6 ×10^−8 A"}, {"measurement": "cleavage of SG1 / glucose release", "setting": "[10]", "result": "complete cleavage; also recorded: Glucose was released"}, {"measurement": "cleavage of SG1 / glucose release", "setting": "H3N2 A/HongKong/8/68", "result": "cleave SG1, releasing glucose; also recorded: Glucose was released"}, {"measurement": "Electrochemical assay (current)", "setting": "[11]", "result": "108.5 ± 12.0 ×10^−8 A"}, {"measurement": "Electrochemical assay (current)", "setting": "[12]", "result": "13.4 ± 2.0 ×10^−8 A"}, {"measurement": "Electrochemical assay (current)", "setting": "[13]", "result": "132.4 ± 6.3 ×10^−8 A"}, {"measurement": "Electrochemical assay (current)", "setting": "[14]", "result": "79.7 ± 5.0 ×10^−8 A"}, {"measurement": "Electrochemical assay (current)", "setting": "A/Sydney/5/1997 (H3N2)", "result": "115.7 ± 4.3 ×10^−8 A"}, {"measurement": "Electrochemical assay (current)", "setting": "[15]", "result": "106.2 ± 5.1 ×10^−8 A"}, {"measurement": "time to completely cleave SG1", "setting": "A/Aichi/2/1968 (H1N1); [21]", "result": "require longer time to completely cleave SG1"}, {"measurement": "Electrochemical assay (current)", "setting": "A/Aichi/2/1968 (H1N1); [22]", "result": "31.3 ± 5.3 ×10^−8 A"}, {"measurement": "cleavage of SG1 / glucose release", "setting": "[16]", "result": "complete cleavage; also recorded: Glucose was released"}, {"measurement": "cleavage of SG1 / glucose release", "setting": "H3N2 A/Aichi/2/1968", "result": "cleave SG1, releasing glucose; also recorded: Glucose was released"}, {"measurement": "matrix effect on cleavage of SG1", "setting": "H1N1 A/Brisbane/59/2007", "result": "does not affect the cleavage"}, {"measurement": "cleavage of SG1 / glucose release", "setting": "H1N1 A/Brisbane/59/2007; 100 μL UV inactivated virus, 1 hour", "result": "cleave SG1, releasing glucose; also recorded: Glucose was released"}, {"measurement": "Electrochemical assay (current)", "setting": "[17]", "result": "15.1 + 2.8 ×10^−8 A"}, {"measurement": "Electrochemical assay (current)", "setting": "A/HongKong/8/1968 (H3N2)", "result": "64.4 ± 5.2 ×10^−8 A"}, {"measurement": "Electrochemical assay (current)", "setting": "[18]", "result": "94.5 ± 2.3 ×10^−8 A"}, {"measurement": "Electrochemical assay (current)", "setting": "[19]", "result": "107.8 ± 5.9 ×10^−8 A"}, {"measurement": "cleavage of SG1 / glucose release", "setting": "[20]", "result": "cleaves SG1 to release glucose"}]}]}
